The source of these data is paper PMC3975887, “The structures of cytosolic and plastid-located glutamine synthetases from Medicago truncatula reveal a common and dynamic architecture” (Acta Crystallographica Section D: Biological Crystallography, 2014).

In one series the target is T1, M. truncatula GSII-2a (Medicago truncatula, UniProt Q84UC1).
T1 sequence (Q84UC1 50-428): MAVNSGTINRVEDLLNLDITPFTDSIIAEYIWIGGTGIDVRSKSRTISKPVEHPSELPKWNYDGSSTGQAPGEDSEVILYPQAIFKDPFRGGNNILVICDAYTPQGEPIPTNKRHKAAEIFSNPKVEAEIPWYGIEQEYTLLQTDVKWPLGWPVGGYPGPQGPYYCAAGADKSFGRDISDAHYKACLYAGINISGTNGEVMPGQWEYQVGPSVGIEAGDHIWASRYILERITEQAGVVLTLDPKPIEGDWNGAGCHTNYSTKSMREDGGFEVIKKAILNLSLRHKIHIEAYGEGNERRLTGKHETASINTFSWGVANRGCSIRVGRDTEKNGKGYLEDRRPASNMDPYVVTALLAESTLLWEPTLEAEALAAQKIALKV
The series is described as follows: GS synthetase reaction inhibition, GSII-2a. Type of series: biochemical. The procedure: (§1) The activities of the His-tagged GS isoenzymes (GSII-1a, GSII-1b, GSII-2a and GSII-2b) were determined by quantifying the γ-glutamyl hydroxamate produced by the synthetase reaction (GSs) as described previously (Cullimore & Sims, 1981[▶]; Cullimore et al., 1982[▶]). The reactions started by the addition of 10 µg purified His-tagged GS isoenzyme to the assay mixture (100 mM Tris buffer pH 7.8, 100 mM glutamate, 8 mM ATP, 8 mM hydroxylamine, 16 mM MgSO4) were allowed to proceed at 30°C for 15 min and were stopped by adding one volume of stop solution (0.37 M FeCl3, 0.67 M HCl, 0.2 M TCA). GS specific activity was determined as the amount of γ-glutamyl hydroxamate produced per minute per milligram of purified protein (µmol min^−1 mg^−1). GS inhibition was evaluated by adding increasing concentrations of either phosphinothricin (PPT; Fluka; 0, 0.005, 0.01, 0.05, 0.1, 0.5, 1, 1.5, 2.5, 5, 10 and 20 mM) or methionine-S-sulfoximine (MSO; Sigma; 0, 0.5, 1, 1.5, 2.5, 5, 10, 20, 40 and 60 mM) to the reaction mixture. GS inhibition assays were performed at two different glutamate concentrations (20 and 100 mM). IC50 was calculated by nonlinear regression using the LogIC50 equation of GraphPad Prism5 (GraphPad Software).

In the next series the target is T2, M. truncatula GSII-1b (Medicago truncatula, UniProt O04999).
T2 sequence (O04999 1-356): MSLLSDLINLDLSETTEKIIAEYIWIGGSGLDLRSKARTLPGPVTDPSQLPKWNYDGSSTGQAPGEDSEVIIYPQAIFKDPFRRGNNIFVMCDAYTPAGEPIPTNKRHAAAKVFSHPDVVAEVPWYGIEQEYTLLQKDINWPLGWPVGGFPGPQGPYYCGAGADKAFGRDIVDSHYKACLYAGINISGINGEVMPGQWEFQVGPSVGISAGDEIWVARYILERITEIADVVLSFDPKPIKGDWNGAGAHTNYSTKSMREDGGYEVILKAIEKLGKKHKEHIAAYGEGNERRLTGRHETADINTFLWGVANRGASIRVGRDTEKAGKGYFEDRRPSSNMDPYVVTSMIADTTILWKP
As to the kind of experiment: GS synthetase reaction inhibition, GSII-1b. Type of series: biochemical. The procedure:
as §1

The next series concerns the target T3, M. truncatula GSII-1a (Medicago truncatula, UniProt O04998).
T3 sequence (O04998 1-356): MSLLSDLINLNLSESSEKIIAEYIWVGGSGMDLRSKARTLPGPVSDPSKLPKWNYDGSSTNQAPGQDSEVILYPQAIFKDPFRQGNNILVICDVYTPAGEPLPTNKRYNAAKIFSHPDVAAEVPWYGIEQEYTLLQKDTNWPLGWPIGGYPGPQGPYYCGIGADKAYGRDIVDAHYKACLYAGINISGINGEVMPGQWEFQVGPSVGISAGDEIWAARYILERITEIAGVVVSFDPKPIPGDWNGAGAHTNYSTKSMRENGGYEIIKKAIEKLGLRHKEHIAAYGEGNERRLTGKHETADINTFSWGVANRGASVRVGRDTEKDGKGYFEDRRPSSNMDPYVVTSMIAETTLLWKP
The series is described as follows: GS synthetase reaction inhibition, GSII-1a. Type of series: biochemical. The procedure: as §1

In another series the target is T4, M. truncatula GSII-2b (Medicago truncatula, UniProt E1ANG4).
T4 sequence (E1ANG4 50-428): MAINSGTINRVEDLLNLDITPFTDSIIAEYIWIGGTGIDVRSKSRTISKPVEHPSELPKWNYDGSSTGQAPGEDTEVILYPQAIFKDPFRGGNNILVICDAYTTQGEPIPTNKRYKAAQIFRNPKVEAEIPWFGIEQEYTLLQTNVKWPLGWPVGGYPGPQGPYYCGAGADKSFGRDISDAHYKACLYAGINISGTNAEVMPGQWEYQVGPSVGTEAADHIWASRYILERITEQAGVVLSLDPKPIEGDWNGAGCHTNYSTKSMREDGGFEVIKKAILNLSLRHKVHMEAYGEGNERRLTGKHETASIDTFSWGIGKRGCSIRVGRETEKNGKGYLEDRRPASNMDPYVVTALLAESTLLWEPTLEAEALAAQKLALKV
As to the kind of experiment: GS synthetase reaction inhibition, GSII-2b. Type of series: biochemical. The procedure:
as §1

The next series deals with plant GSII. On the set-up: method as in Evstigneeva et al., 2003. Conditions: plant GSII overall; ref Evstigneeva et al., 2003; cited from earlier work.
Series [1] concerns the target Medicago truncatula plastid-located glutamine synthetase GSII-2a (mature polypeptide) (Medicago truncatula). The series is described as follows: native MS; nondenaturing conditions, ammonium acetate buffer pH 7.5, nano-electrospray, capillary voltage 1700 V, cone potential 50 V.
Series [2] has the same target. The series is described as follows: native MS; high activation conditions: collision energy increased from 100 to 200 V; ammonium acetate buffer pH 7.5; decamer to pentamers in the gas phase.
For series [3] the target is unchanged. As to the kind of experiment: cryo-EM structure; purified GSII-2a 0.3 mg/ml vitrified; single-particle reconstruction with D5 symmetry applied, 3117 side-view particles with parallel rings, 20 Å.
The target is the same in series [4]. As to the kind of experiment: native MS; high activation conditions: collision energy increased from 100 to 200 V; ammonium acetate buffer pH 7.5; decamer to pentamers in the gas phase. This is another data set of the same source.
Series [5] deals with the molecule itself. As to the kind of experiment: crystal structure; apo form, space group P2_(1), decamer in the asymmetric unit, 2.35 Å.
The mark [6] stands for this setting: MSO titration using 20 mM glutamate, His-tagged enzyme, read-out: IC50 (concentration of inhibitor reducing the GS activity by 50%).
The mark [7] stands for this setting: standard GS assay conditions (100 mM glutamate).

Read-outs that look alike come from different tables or passages of the source.

`CS(=N)(=O)CC[C@H](N)C(=O)O` (some centres unmarked) [MSO, methionine-S-sulfoximine]: the figures for the IC50 at M. truncatula GSII-2a (setting [6]), at M. truncatula GSII-1b (setting [6]) and at M. truncatula GSII-1a (setting [6]) were 3600 µM, 2200 µM and 9500 µM, respectively. The “GS inhibition under the standard GS assay conditions” value on M. truncatula GSII-2a (setting [7]), on M. truncatula GSII-1b (setting [7]), on M. truncatula GSII-1a (setting [7]) and at M. truncatula GSII-2b (setting [7]) was “poorly inhibited” each time.

For the molecule `CP(=O)(O)CC[C@H](N)C(=O)O` [PPT, phosphinothricin], the “times more effectively inhibited by PPT than by MSO” value with plant GSII was 5–10 times. For the same molecule, the IC50 on M. truncatula GSII-2a came out at 260 µM; at M. truncatula GSII-1b, 670 µM; at M. truncatula GSII-1a, 760 µM; on M. truncatula GSII-2b, 720 µM.

As for “Medicago truncatula plastid-located glutamine synthetase GSII-2a (mature polypeptide) (enzyme)”, the stoichiometry N in series [1] amounted to 10; in series [2], 5; in series [3], 10; in series [4] it was 10.

B1: Medicago truncatula cytosolic glutamine synthetase GSII-1a (enzyme, UniProt O04998 1-356, looked up)
chain: T3 sequence (O04998 1-356)
notes: Glutamine synthetase GSII-1a, cytosolic, Medicago truncatula, UniProt O04998; Apo form; also called MtGSII-1a; MtGSII1a; source: recombinant, N-terminally His-tagged; cloning and crystallisation described previously (Seabra et al., 2009); not shown: His tag, N-terminal, kept; copies: 10
On to B1, for which the “stoichiometry N” value in series [5] amounted to 10.

One may read the stoichiometry N as a count of units in the complex or per binding partner.
